The record followed here is a melting point compilation (Tetko et al.; mined from patent text by program, amines drawn as free bases though some values may be those of a salt).

Molecules are shown by their SMILES.

The compound `Clc1cc(Cl)nc(N2CCCC2)n1` showed a melting point of 95 to 98 °C. In the case of `CC(C)n1nc(-c2cc(C(=O)NCCN3CCOCC3)cnc2-c2ccccc2)ccc1=O` it was 162 to 163 °C; in that of `CCCc1c(OCc2cccc(CC(=O)O)c2)ccc(C(C)=O)c1O`, 156 to 158 °C; in that of `Fc1ccc(F)c(-n2nnc3cccnc32)c1`, 140 °C. The result for `Cc1cnc2c(=O)[nH]c3ccccc3n12` reads greater than 300 °C. Consider `COc1ccc(C(=O)OCCOC(=O)NC2(C(=O)O)CC2)cc1OC`, for which the melting point was 172 to 174 °C. Compound `CCCN(CCO)C(=O)c1ccc(C(=O)N2CCN(c3ncccc3NC(C)C)CC2)cc1` showed a melting point of 79 to 82 °C.

Take `Cc1cc(Br)ccc1C1(Cn2cncn2)OCCO1`: the melting point was determined as 148 °C.

Compound `COCc1ccc(CCCOc2c(C)cc(-c3noc(C(F)(F)F)n3)cc2C)cn1` had a melting point of 50 to 53 °C. The result for `C=CCCc1nc(N)n2nc(-c3ccco3)nc2n1` reads 194 to 196 °C; that for `CCOC(=O)c1c(C)nc2cc(OC)c(OC)cc2c1-c1ccc(OC)c(OC)c1`, 147 to 148 °C; that for `O=C(O)c1cc(-n2c(-c3ccccc3)cc3c2CCCC3)cc(Br)c1O`, 209 to 210 °C.

As for `CCN1C(=O)C(C)(C)C(=O)N(C)c2cc(OCCCn3c(=O)c(-c4ccccc4)c(Cl)c4ccccc43)ccc21`, the melting point was 122 to 128 °C. The result for `O=C(O)CCC12CCCn3c1c(c1ccccc13)CCO2` (configuration not stated) reads 153 to 155 °C; that for `C#CCN1CC(=O)Oc2cc(F)c(NN)cc21`, 146 °C.

For `COc1cc(Cc2cnc(N3C(=O)c4ccccc4C3=O)nc2N)cc(OC)c1OC`, the melting point was found to be 221 °C. In the case of `COc1cc(Cc2ccc3nc(N)nc(N)c3c2)cc(OC)c1OC` it was 219 to 221 °C; in that of `COc1cc2nc(N)nc(-c3ccc(O)c(C(=O)O)c3)c2cc1OC`, greater than 300 °C; in that of `CSCc1ccc(NC(=O)/C=C/c2cnn(C)c2-c2ccc(SC)cc2)cc1`, 145 to 146 °C. The compound `Nc1ccc2c(c1)NC(=O)c1cscc1N2` had a melting point of 212 to 215 °C.

Consider `CCc1ccc(N2CCN(c3c(C)c(C)c4c(c3C)CC(C)(C)O4)CC2)cc1`, for which the melting point was 152 to 155 °C. In the case of `CN1CCC(NC(=O)c2cccc(Cl)c2)C12CCCCC2` (configuration not stated) it was 121 to 122 °C; in that of `CCOC(=S)Nc1nc(OCc2ccc(F)cc2)ncc1F`, 109 to 119 °C. The result for `CNC(=O)Oc1ccc(SC)c2c1CCCC2` reads 146 to 147 °C; that for `COc1ccc2ccc(N3C(=O)c4ccccc4C3OC(=O)CCCC(C)C)nc2n1` (configuration not stated), 105 °C; that for `CC(C)(C)OC(=O)NC(C(=O)O)C1(O)CCOCC1` (configuration not stated), 140 to 141 °C.

Regarding `Cc1ccccc1CNC(=O)c1ccc2n1Cc1ccccc1N(C(=O)c1ccc(-c3ccccc3C)c(C)c1)C2`, the melting point was 128 to 130 °C. The result for `Cc1ccc2cccc(OCc3c(Cl)ccc(S(=O)(=O)N4CCCC4C(=O)NCCCN)c3Cl)c2n1` (configuration not stated) reads 130 to 132 °C; that for `OC(CCCCCOc1ccccc1)c1cccc(OCc2ccc3ccccc3n2)c1` (configuration not stated), 83 to 84.5 °C. The result for `CC(=O)Nc1cc(C(=O)NNC(=O)c2occ(-c3ccccc3)c2-c2ccccc2)ccc1O` reads 233 to 235 °C; that for `NS(=O)(=O)c1ccc(-n2nc(C(F)(F)F)cc2-c2ccc(-c3cscn3)c(Cl)c2)cc1F`, 173 to 175 °C; that for `CCOC(=O)c1cc2nc(C)nc-2[nH]c1C(=O)OCC`, 164 to 165 °C.

With `NC(C(=O)O)c1ccsc1` (configuration not stated), the melting point was 283 to 285 °C. In the case of `Clc1ccc(-c2nc(-n3cncn3)oc2CCC2=NCCO2)cc1` it was 132 to 133 °C; in that of `CCOC(=O)c1cnn2c(O)cc(-c3ccc(Cl)cc3)nc12`, 190 to 192 °C; in that of `CC(=O)N1C(=O)OC[C@@H]1Cc1ccccc1`, 106 °C. The result for `COc1ccc(C(=O)CCC(=O)O)c(Cl)c1Cl` reads 142 to 144 °C. In turn, `OCc1nc2ccc(OC(F)(F)F)cc2[nH]1` registered a melting point of 192 to 194 °C. The result for `CC(=O)OCCOc1cccc(C(N)=O)c1` reads 121 to 122 °C; that for `CCN1c2ncc(CCc3ccncc3)cc2C(=O)N(C)c2ccc(I)nc21`, 174 °C; that for `CCC(C)NC1=NS(=O)(=O)c2ccc(Cl)cc2N1` (configuration not stated), 242 to 245 °C.

Turning to `CCOc1ccc(-c2[nH]c(-c3ccc([N+](=O)[O-])cc3)nc2C(=O)O)cc1`, the melting point fell in the range of 148 to 152 °C. In the case of `CC(O)Cc1ccc(-c2ccc3cc(C(=O)O)ccc3c2)cc1C12CC3CC(CC(C3)C1)C2` (configuration not stated) it was 282 °C; in that of `CC(C)(O)Cc1cc(O)ccc1Br`, 139 to 141 °C. In the case of `COC(=O)Nc1nc(C)c(-c2nc3ccccc3c(=O)n2-c2ccccc2Cl)s1` it was 243 to 245 °C; in that of `O=C(O)c1cc(Cl)cc(I)c1O`, 160 to 163 °C; in that of `CC(=O)Oc1cc2c(cc1OC(C)=O)OCC(c1ccccc1)C2` (configuration not stated), 102 °C. On to `Cc1nc2ncnn2c(O)c1Br`, for which the melting point stood at 269 °C. The result for `COc1cc(Nc2nc3cccc(-c4ccn[nH]4)c3o2)cc(OC)c1OC` reads 185 to 189 °C; that for `Fc1cc2c(cc1F)C(Cl)Cc1ccccc1S2` (configuration not stated), 68 to 71 °C; that for `Oc1ccc(N=C2SCS2)cc1`, 162 to 163 °C. As for `CCN(CC)CCNC(=O)c1cc(Cl)c(N)cc1OCCCCS(C)=O` (configuration not stated), the melting point lay in the range of 80 to 83 °C.

`CC(=O)Nc1cc(F)ccc1C` returned a melting point of 127 to 128 °C. The result for `CCCc1nc(CO)c[nH]1` reads 95 to 101 °C; that for `COc1cc2c(cc1OC)C(c1cc(N)ccc1Cl)=NN=C(C)C2`, 188 to 190 °C. For `c1ccc2c(c1)c1ccccc1c1cc(-c3ccc4c5ccccc5c5ccccc5c4c3)ccc21`, the melting point is 356 °C. Compound `COc1cc(CO)c(OC)cc1Cl` displayed a melting point of 89 to 90 °C. Compound `CSc1ccc(C(=O)Nc2cccnc2C(=O)Nc2ccc(Cl)cn2)c(OCCN)c1` had a melting point of 158 to 159 °C. The result for `COc1ccc(Sc2ccc3[nH]cc(C4CCN(C)CC4)c3c2)cc1` reads 160 to 162 °C; that for `CC(C)(CS(C)(=O)=O)NC(=O)c1c(NC(=O)c2cc(C(F)(F)F)nn2-c2ncccc2Cl)c(Cl)cc2cn[nH]c12`, 173 to 176 °C; that for `Clc1cc(OC[C@@H]2CCN2)cnc1Cl`, 59 to 60 °C. The result for `CCc1c(C(=O)c2cc(C)cc(C=CC#N)c2)[nH]c(=O)[nH]c1=O` reads 305 to 306 °C. Consider `CC(=O)Nc1cc2c(cc1C#N)[C@@H](N1CCCC1)[C@H](O)C(C)(C)O2` (relative stereo), for which the melting point lay within 175 to 176 °C.

In the case of `CC(=O)C1(OC=O)CCC2C3CCC4=CC(=O)C=CC4(C)C3CCC21C` (configuration not stated), the melting point lay within 201 to 205 °C. Take `CC(C)(CO)NC(=O)c1ccncc1C1=CCCc2ccccc21`: the melting point came out at 157 °C. The result for `CC1Cc2ccc(Cl)cc2C(c2ccc([N+](=O)[O-])cc2)=NN1` (configuration not stated) reads 132 to 135 °C; that for `COc1cccc(-c2ccnc3ncnn23)c1`, 163 to 165 °C. In the case of `CCN1C(=O)C(C)(C)C(=O)N(C)c2cc(CN(CCn3ccc4oc(C)cc4c3=O)Cc3cccnc3COC)ccc21` it was 127 to 129 °C; in that of `NC1(C(=O)O)C=CC(Br)=C(F)C1` (configuration not stated), 180 °C. In the case of `Nc1ccc(Oc2ncc(-c3ccccc3)c(C(F)(F)F)n2)cc1` it was 123 to 126 °C; in that of `COC1(c2cc(F)cc(F)c2)CCOCC1`, 100 °C. Turning to `COC(=O)c1cc2ccc(SCCCc3cc4c(cc3OCc3ccccc3)CC(CCc3ccccc3)O4)cc2nc1OC` (configuration not stated), the melting point is 96 to 98 °C. In the case of `O=C(c1cncc(Br)c1)N1CCOCC1` it was 49 to 51 °C; in that of `Nc1sc(-c2ccc(F)cc2)cc1C(=O)O`, 172 to 174 °C; in that of `Cc1nccn1-c1cccc(Nc2ccc(I)cc2[N+](=O)[O-])c1`, 135 to 136 °C. In the case of `c1ccc(N(CCCNC2=NC3CCC2CC3)c2ccccc2)cc1` it was 148 to 150 °C; in that of `Cc1ccc(-c2cc(C(F)(F)F)n3ncc(-c4ccncc4)c3n2)cc1C(F)(F)F`, 218 °C. On to `O=C(CCc1ccccc1)Nc1ccc(C(=O)NN=C2C(=O)Nc3ccc(I)cc32)cc1`, for which the melting point stood at 297 °C. The result for `CCN(c1ccc(OC)cc1)S(=O)(=O)c1cccc(C(=O)Nc2ccc(C#N)cc2)c1` reads 168 to 169 °C. The result for `N#CCCOC(=O)NC(=O)C(c1ccccc1)c1ccccc1` reads 113 °C; that for `Cc1ccc(=O)n(-c2cc(F)c(C#N)cc2F)n1`, 159 °C. The result for `Cc1cc(C(=O)N(C)C)c(O)c([N+](=O)[O-])c1` reads 160 to 162 °C.

Turning to `CC(C)c1cc(OS(C)(=O)=O)cc(C(C)C)c1NC(=O)CN1CCN(CCSc2nc3ccccc3o2)CC1`, the melting point lay in the range of 115 to 117 °C.

As to `COc1nc(NCS(=O)(=O)c2ccc(C)cc2)nc(N(C)C)n1`, the melting point was in the range of 188 to 190 °C. The result for `CCCn1c(OCC2CC2(Cl)Cl)nc2sc(Cl)cc2c1=O` (configuration not stated) reads 94 to 96 °C; that for `COC(=O)C1=C(CC(=O)N2CCN(C)CC2)NC(CS(=O)c2ccccc2C)=C(C(=O)OC)C1c1c(Cl)cccc1Cl` (configuration not stated), 183 °C.

For the compound `NC(=O)COc1ccccc1C(=O)Nc1ccc(C(=O)N2CCCCc3ccccc32)cc1`, the melting point lay within 198 to 199 °C.

With `CCOC(=O)C(=CNc1coc2ccccc2c1=O)C(=O)OCC`, the melting point fell in the range of 155 to 157 °C.

`CS(=O)(=O)C(S(C)(=O)=O)S(=O)(=O)Oc1ccccc1` gave a melting point of 159 to 160 °C.

In turn, `CCOC(=O)c1c(NC)n[nH]c1C` gave a melting point of 161 to 162 °C.

`CC(=O)c1cnc(N)c(Cl)c1`: the melting point amounted to 188 °C. In the case of `CN(C)C=C(C#N)C(=O)Nc1ccccc1` it was 162 to 164 °C.

By melting point is commonly meant the temperature of the solid-liquid transition.
